# Patent US20250382346A1, “NEURONAL PROMOTERS AND USES THEREOF” (priority 2023, published 2025)
# Legend:
# hM3Dq = molecular target: T1, hM3Dq (Homo sapiens, UniProt P20309, A239G/Y149C); assay: In vivo electrophysiological recording in caudate of anesthetized macaques, hM3Dq
# T1 construct: expressed in transfected cells; host or cells: neurons of C57BL/6J mice or of macaques, transduced in vivo by nigral AAV8R12-G88P3-HA-hM3Dq
# Protocol: (§1) • Electrophysiological recording was performed through a recording chamber while the monkey was anesthetized. Neural responses were recorded by a 16-channel linear probe (Plexon Inc, Uprobe) driven by a mechanical microdrive (Alpha Omega, FlexMT). Signals were passed through a head stage (Plexon Inc, HST/16V-G20 LN) and then split and filtered between 300 Hz and 5 kHz to identify spiking activity with an amplifier system (Plexon Inc, OmniPlex). Detected spikes were then sorted by commercially available software (Plexon Inc, Offline Sorter) for further analysis. To quantify the effect of CNO/DCZ injection, neural activity was recorded for 60 minutes following CNO/DCZ injection. The response time-course for each channel was obtained by counting the spikes within every 10-minute window and then normalizing to the maximal.
# (§2) To determine the effect of CNO/DCZ injection on the direction of signal change, we performed Pearson correlation between neural responses and time using the ‘corr’ function in Matlab, which generates the correlation coefficient ‘r’ and significant level ‘p’. A neuron was considered to have “Increased” activity when r>0 and p<0.05; and considered to have “Decreased” activity when r<0 and p<0.05. Otherwise, neurons were considered to be “Unchanged” in their neural activities. The responses of all increased neurons were then averaged after being normalized by the maximal response (Crowe et al., 2014; Dai and Wang, 2018; Hirokawa et al., 2019) following CNO/DCZ injection, and then plotted as a function of time to generate the normalized population response.
# rM3Ds = molecular target: T2, rM3Ds (Rattus norvegicus, UniProt P08483, A177S/A238G/A489L/DEL261-437/DEL441-478/E258S/I253V/I483M/INS256[…]/K178L/K182A/K255R/K484R/K486H/L173F/L482A/M480V/R171S/R176Q/R179M/S481M/T174R/T181R/T257A/Y148C); assay: In vivo electrophysiological recording in caudate/putamen of anesthetized macaques, rM3Ds; design: 2A-EYFP (C); expressed in transfected cells; host or cells: neurons (striatal D1-MSNs) of mice or cynomolgus macaques, transduced in vivo by nigral AAV8R12-G88P7-rM3Ds-2A-EYFP
# T2 sequence (P08483 with tags, fused parts or gaps Y148C/R171S/L173F/T174R/R176Q/A177S/K178L/R179M/T181R/K182A/A238G/I253V/K255R/INS256[…]/T257A/E258S/DEL261-437/DEL441-478/M480V/S481M/L482A/I483M/K484R/K486H/A489L): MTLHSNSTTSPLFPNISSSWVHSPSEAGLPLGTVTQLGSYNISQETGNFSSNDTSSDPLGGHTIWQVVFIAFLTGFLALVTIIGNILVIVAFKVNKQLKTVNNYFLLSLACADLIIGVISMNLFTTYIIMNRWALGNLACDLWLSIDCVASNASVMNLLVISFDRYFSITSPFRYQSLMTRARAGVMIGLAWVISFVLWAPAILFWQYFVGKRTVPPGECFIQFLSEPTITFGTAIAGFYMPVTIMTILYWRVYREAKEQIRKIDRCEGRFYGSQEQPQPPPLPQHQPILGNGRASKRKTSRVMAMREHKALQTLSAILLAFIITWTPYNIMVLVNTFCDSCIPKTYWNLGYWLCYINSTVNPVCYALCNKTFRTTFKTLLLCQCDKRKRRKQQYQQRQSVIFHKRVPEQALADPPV
# Protocol: as §1, §2
# To enable in-vivo verification of the strategy via an opto-tagging approach, AAV virus encoding opsin ChR2 (AAV9-EF1α-DIO-ChR2-EYFP) was injected into the striatum with simultaneous nigral infusion of a retrograde AAV encoding Cre and rM3Ds (AAV8R12-G88P7-HA-rM3Ds-2A-Cre). A total volume of 27 μl (3 μl×9 sites) and 30 μl (3 μl×10 sites) were injected in the SNr and the striatum, respectively. A recording chamber was implanted above the striatum to allow optical stimulation and electrophysiological recording.
# Optogenetic verification was conducted six weeks after virus injections. A 16-channel linear probe with an embedded optic fiber (Plexon Inc., Uprobe) was used to deliver light stimulation and record neural responses. A mechanical Microdrive (FlexMT, Alpha Omega, Nazareth, Israel) was used to mount and drive the probe. A blue laser (473 nm, Changchun New Industries Tech, MBL-III-473) was used to generate light stimulation, which was controlled by a DAQ board (National Instruments, PCIe-6321) through the MonkeyLogic toolbox (NIMH version).
# Light pulses of 40 Hz that last for 500 ms were used to probe neurons' responses to optical stimulation. […] Responses from these optically identified cells were grouped to generate the normalized population response as a function of time.
# [1] = 34 total cells, CNO infusions, saline 40.6%
# [2] = monkey CM045, 34 cells, CNO infusion into dorsomedial caudate
# [3] = monkey CM048, 38 cells, intramuscular CNO
# T1 sequence (P20309 whole entry Y149C/A239G): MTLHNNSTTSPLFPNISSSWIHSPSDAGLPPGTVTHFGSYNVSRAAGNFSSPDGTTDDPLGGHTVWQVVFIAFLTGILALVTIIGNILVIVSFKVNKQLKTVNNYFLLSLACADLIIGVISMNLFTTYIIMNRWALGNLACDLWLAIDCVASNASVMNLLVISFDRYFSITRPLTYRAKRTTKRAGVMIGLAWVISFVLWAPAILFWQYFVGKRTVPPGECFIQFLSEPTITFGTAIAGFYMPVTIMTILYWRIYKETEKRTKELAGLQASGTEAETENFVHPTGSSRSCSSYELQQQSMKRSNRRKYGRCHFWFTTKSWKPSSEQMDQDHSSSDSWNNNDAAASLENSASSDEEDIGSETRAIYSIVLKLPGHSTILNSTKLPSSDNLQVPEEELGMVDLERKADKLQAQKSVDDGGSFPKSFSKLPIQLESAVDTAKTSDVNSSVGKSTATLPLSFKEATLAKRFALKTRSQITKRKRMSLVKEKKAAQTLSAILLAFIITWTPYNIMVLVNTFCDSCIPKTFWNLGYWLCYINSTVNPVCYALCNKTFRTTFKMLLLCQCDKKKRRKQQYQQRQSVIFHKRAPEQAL
structure (smiles),measurement,setting,value
"C[N+]1([O-])CCN(C2=Nc3cc(Cl)ccc3Nc3ccccc32)CC1 [CNO, Clozapine-N-oxide]",cells in caudate activated (FIG. 12L),"hM3Dq; 34 total cells, CNO infusions, saline 18.8%",67.6%
same,cells in caudate inactivated (FIG. 12L),hM3Dq; [1],2.9%
same,cells in caudate unchanged (FIG. 12L),hM3Dq; [1],29.4%
same,cells in caudate activated (FIG. 12C),hM3Dq; [2],70.6%
same,cells in caudate inactivated (FIG. 12C),hM3Dq; [2],8.8%
same,cells in caudate unchanged (FIG. 12C),hM3Dq; [2],20.6%
same,cells in caudate/putamen activated (FIG. 12N),"rM3Ds; 38 total cells, CNO administrations, saline 20%",50%
same,cells in caudate/putamen unchanged (FIG. 12N),"rM3Ds; 38 total cells, CNO administrations, saline 26.7%",36.8%
same,cells in caudate/putamen inactivated (FIG. 12N),"rM3Ds; 38 total cells, CNO administrations, saline 53.3%",13.2%
same,neuronal activity of opto-tagged retrogradely labeled D1-MSNs,"rM3Ds; AAV8R12-G88P7-HA-rM3Ds-2A-Cre plus AAV9-EF1α-DIO-ChR2-EYFP, intramuscular CNO, anesthetized macaques",effectively induced an increase of neuronal activity in retrogradely labeled D1-MSNs
same,cells in caudate/putamen activated (FIG. 15G),"rM3Ds; MPP+ lesioned macaques, CNO 36 cells, DCZ 31 cells, saline 17.9%",52.8%
same,cells in caudate/putamen inactivated (FIG. 15G),"rM3Ds; MPP+ lesioned macaques, CNO 36 cells, DCZ 31 cells, saline 33.4%",13.9%
same,cells in caudate/putamen unchanged (FIG. 15G),"rM3Ds; MPP+ lesioned macaques, CNO 36 cells, DCZ 31 cells, saline 48.7%",33.3%
same,cells in caudate activated (FIG. 12F),rM3Ds; [3],65.8%
same,cells in caudate inactivated (FIG. 12F),rM3Ds; [3],7.9%
same,cells in caudate unchanged (FIG. 12F),rM3Ds; [3],26.3%
